Source: EP2084544B1, “STABLE STANDARDS FOR BNP IMMUNOASSAYS” (Hytest Ltd., priority 2006, dated 2011)

Assay: Stability of BNP immunoreactivity of antigens incubated in pooled human citrate plasma, measured by sandwich immunofluorometric assay (MAbs 50E1 / 24C5-Eu)
Assay type: in vitro ADME
Description: Antigens used in the studies. The antigens used in the stability studies included synthetic BNP-32 (Bachem, Bubendorf, Switzerland, cat. no. H-9060.0500), synthetic BNP-32 (Peptide Institute, Osaka, Japan, cat. no. 4212-v), recombinant proBNP (expressed in E. coli, non-glycosylated, from Hytest Ltd., Turku, Finland, 8PRO8), recombinant proBNP (expressed in eukaryotic CHO (Chinese hamster) cells and, thus, glycosylated, as described herein), and recombinant proBNP (expressed in eukaryotic HEK (human) cells and, thus, glycosylated, as described herein).
Antigen solutions. An antigen matrix was prepared by pooling human citrate plasmas collected from healthy donors. Plasma was obtained from 15 healthy volunteers by vein puncture and mixed with 0.11 M sodium citrate tribasic in a ratio of 4:1. The crude serum:citrate was centrifuged for 30 minutes at 2000 rpm. Plasma was decanted, pooled and stored at -70°C until use. Antigen concentrations used in the studies were 6 ng/ml for recombinant proBNP expressed in CHO cells, 20 ng/ml for synthetic BNPs, 20 ng/ml for recombinant proBNP expressed in E. coli and 20 ng/ml for recombinant proBNP expressed in HEK cells. 0.1 % sodium azide was added to plasma as a preservative to prevent bacterial growth.
Incubation at 4°C and 25°C. Antigen solutions in human plasma were incubated for different time periods (up to 96 hours) at 4°C and 25°C. Aliquots were frozen and stored at -70°C until BNP immunoreactivity was measured.
Assays for BNP immunoreactivity. BNP immunoreactivity in the samples was determined by sandwich immunofluorometric assay utilizing two BNP-specific monoclonal antibodies (MAbs). […]
MAb 24C5 specifically recognized and bound to peptide 11-22 of the BNP sequence and was conjugated to stable Eu^3+ chelate using conventional techniques. […] Consequently, it can be used for the quantification of whole BNP immunoreactivity, comprising both BNP and proBNP.

## CC[C@H](C)[C@@H]1NC(=O)[C@H](CCCNC(=N)N)NC(=O)[C@H](CC(=O)O)NC(=O)[C@H](CCSC)NC(=O)[C@H](CCCCN)NC(=O)[C@H](CCCNC(=N)N)NC(=O)CNC(=O)[C@H](Cc2ccccc2)NC(=O)[C@@H](NC(=O)CNC(=O)[C@H](CO)NC(=O)CNC(=O)[C@H](CCC(N)=O)NC(=O)[C@@H](NC(=O)[C@H](CCSC)NC(=O)[C@H](CCCCN)NC(=O)[C@@H]2CCCN2C(=O)[C@@H](N)CO)C(C)C)CSSC[C@@H](C(=O)N[C@@H](CCCCN)C(=O)N[C@H](C(=O)N[C@@H](CC(C)C)C(=O)N[C@@H](CCCN=C(N)N)C(=O)N[C@@H](CCCN=C(N)N)C(=O)N[C@@H](Cc2cnc[nH]2)C(=O)O)C(C)C)NC(=O)CNC(=O)[C@H](CC(C)C)NC(=O)CNC(=O)[C@H](CO)NC(=O)[C@H](CO)NC(=O)[C@H](CO)NC(=O)[C@H](CO)NC1=O [Synthetic BNP-32]
96 hours of incubation at 4°C
  immunoreactivity detected after incubation (in words): Almost no immunoreactivity
96 hours of incubation at 25°C
  immunoreactivity detected after incubation (in words): Almost no immunoreactivity
Incubation up to 96 hours at 4°C and 25°C
  stability among the tested protein forms displaying BNP immunoreactivity (rank in words): worst stability
